According to patent US11504414B2, “Bacterial inhibitors” (priority 2016, dated 2022):
Where no end group is shown, it is not given here.

B1: C-terminal domain: C-terminal domain of S. cristatus arginine deiminase, 208 amino acid portion (protein, listed as Streptococcus cristatus)
chain: VYNREEDTRIEGGDELVLSKDVLAVGISQRTDAASIEKLLVNIFKKNVGFKKVLAFEFANNRKFMHLDTVFTMVDYDKFTIHPEIEGDLRVYSVTYENEKLKIVEEKGDLAELLAQNLGVEKVHLIRCGGGNIVAAGREQWNDGSNTLTIAPGVVVVYDRNTVTNKILEEYGLRLIKIRGSELVRGRGGPRCMSMPFEREEV

How the values were obtained:
[1] = test system: P. gingivalis 33277; type: cell-based, Porphyromonas gingivalis; conditions: for inhibitory activity on virulence gene expression: lower efficiency than peptide4; for Relative expression level fmA / Relative expression level kgp / Relative expression level mfa1 / Relative expression level pgn0128 / Relative expression level rgpA / Relative expression level rgpA/B: peptide 16 μM in TSB; for Relative expression level fmA: mRNA by real-time PCR relative to absence of peptides = 1 unit, mean of three experiments; for Relative expression level kgp / Relative expression level mfa1 / Relative expression level pgn0128 / Relative expression level rgpA / Relative expression level rgpA/B: mRNA relative to absence of peptides = 1 unit
Experimental: The half inhibitory concentration (IC50) was measured by conducting three independent experiments to determine mRNA levels of fimA, mfa1, rgpA/B, and kgp in the presence of peptide4 at the concentrations 0, 4, 16, and 64 μM, respectively. The IC50 for each gene was established using a Microsoft Excel program with add-in for curve fitting. Asterisks indicate the statistical significances of IC50 of peptide4 for a specific gene when compared to that for the fimA gene (P<0.05; t test).
RNA isolation and qPCR. P. gingivalis were homogenized in Trizol Reagent (Invitrogen, Carlsbad, Calif.) and RNA was purified using an RNeasy mini spin column (Qiagen, Valencia, Calif.). RNA samples were digested on-column with RNase-free DNase, and total RNA was tested using an Agilent 2100 Bioanalyzer to ensure the quality of the samples. Amplification reactions consisted of a reverse transcription using a Bio-Rad iScript Reverse Transcription Supermix on a TC-3000 thermal cycler (Techne, Staffordshire, ST15 OSA, UK) and a real-time qRT-PCR analysis using a QuantiTect SYBR Green RT-PCR Kit (Qiagen) on an iCycler MyiQ™ Real-Time PCR detection system (Bio-Rad Laboratories, Inc, Hercules, Calif.) according to the manufacturer's instructions. P. gingivalis 16 S rRNA gene was used as a normalizing gene. The melting curve profile was analyzed to verify a single peak for each sample, which indicated primer specificity. The expression levels of the investigated genes for the test sample were determined relative to the untreated calibrator sample by using the comparative cycle threshold (ΔCT) method. ΔCT was calculated by subtracting the average CT value of the test sample from the average CT value of the calibrator sample, and the value used to calculate the ratio between the two by assuming 100% amplification efficiency.
Peptide synthesis and activity. Peptides were synthesized by PEPperPRINT and Biomatik (Delaware) and purified with High Performance Liquid Chromatography (HPLC) at 90% purity. Peptides were resuspended in nuclease/proteinase-free PBS, aliquoted, and stored at −20° C. Inhibitory activity of peptides were determined as described (Hajishengallis, G., Darveau, R. P. & Curtis, M. A. The keystone-pathogen hypothesis. Nature reviews. Microbiology 10, 717-725, doi:10.1038/nrmicro2873 (2012)) with slight modification. Peptides were mixed with 5×10^5 cells of P. gingivalis, spotted onto a TSB blood agar plate, and cultured for 60 h anaerobically. The expression levels of fimbrial and gingipain mRNA or proteins were measured using qRT-PCR or western blot analyses.
P. gingivalis 33277 was grown TSB in the presence or absence of peptide at a concentration 16 μM. Transcript levels were measured by real-time PCR. The mRNA levels of genes are indicated relative to the expression level in the absence of peptides as 1 unit. Results shown are means and standard deviations from three independent experiments. Asterisks indicate the statistical significance of expression levels at least two fold in P. gingivalis grown in TSB with/without peptides (P<0.05; t test).

[2] = test system: surface extracts of P. gingivalis 33277; assay: ArcA peptide microarray binding of surface extracts; parameters: species or system Porphyromonas gingivalis; conditions: portions of ArcA
Experimental: The five highest peaks are numbered.
Protein Interaction Screening. Surface extracts of P. gingivalis were collected by sonication (1 min for three times) and centrifugation (13000 g for 30 min) followed by filtration (0.2 μm pore size). Peptide microarray analysis was performed by PEPperPRINT (Heidelberg, Germany). An ArcA microarray was generated with 409 different peptides of ArcA, and each peptide contained 15 amino acids with a peptide-peptide overlap of 14 amino acids. After blocking and washing, the array was incubated with surface extracts (100 μg/ml) isolated from P. gingivalis 33277, the 0806 mutant, or the ragB mutant. P. gingivalis surface proteins bound on the ArcA array were detected using anti-P. gingivalis antibodies and sheep anti-rabbit IgG (H+L) DyLight680. The arrays were analyzed with a LI-COR Odyssey Imaging System.

[3] = test system: HOKs; assay: LDH cytotoxicity assay; type: cell-based, human; conditions: P4 as high as 200 μM, 48 h
Experimental: (§1) To examine the cytotoxic effects of P4, plasma membrane damage of HOKs was determined by the Pierce LDH Cytotoxicity Assay Kit. HOKs were seeded into a 6-well plate at a density of 1×10^5/well and cultured in Oral Keratinocyte Medium supplemented with antibiotics (100 U/mL penicillin and 100 μg/mL streptomycin) and 10% fetal calf serum at 37° C. in a humidified chamber with 5% CO2 for 24 h. The cells were then incubated with the growth medium supplemented with P4 (50 or 200 μM) for 48 h. The growth medium was collected for an LDH cytotoxicity assay according to the manufacturer's instructions (Thermo Scientific). To measure the effect of P4 on HOK apoptosis, HOKs were harvested and stained with Annexin V-FITC Apoptosis Kit (Invitrogen), which is able to stain both apoptotic cells and dead cells. Flow cytometric analysis was performed to quantitate apoptotic cells and dead cells (annexin V+/PI+).

[4] = test system: HOKs; assay: Annexin V-FITC apoptosis assay (flow cytometry); type: cell-based, human; conditions: P4 as high as 200 μM, 48 h
Experimental: as §1

[5] = P4 stability in H2O and PBS (LC-MS/MS); type: physicochemical
Experimental: Non-proteinogenic amino acids may improve peptide stability.
(§2) To determine P4 stability in solution, P4 was incubated in H2O, PBS, and whole saliva at 37° C. for 24 h. P4 in each sample was compared using LC-MS/MS analysis. Briefly, 2 μM P4 was injected on C18 nano-clumn and run with 5-20% of 0.1% FA in acetonitrile for 30 min. MS spectra were acquired in a positive mode on Orbitrap LTQ XL (Thermo).

[6] = P4 stability in whole saliva (LC-MS/MS); type: in vitro ADME
Experimental: as §2

[7] = buffer (PBS) and TBS (growth medium of P. gingivalis)
[8] = P4 stability in whole saliva (LC-MS/MS); type: in vitro ADME; remark: listed apart in the source
[9] = test system: P. gingivalis 33277; assay: Immunofluorescence/confocal assay of ArcA binding to bacteria; parameters: species or system Porphyromonas gingivalis; conditions: purified ArcA 50 μg, 10^8 cells
Experimental: The upper panel presents differential interference contrast (DIC) images showing the location of the bacteria. The red images in the lower panel are the TRITC fluorescence labeling images representing S. cristatus ArcA bound to P. gingivalis 33277 or A. actinomycetemcomitans Y4 that are positively labeled by ArcA specific antibody.
Confocal microscopy. ArcA (50 μg) was purified from S. cristatus CC5A as described (Teles R, Teles F, Frias-Lopez J, Paster B, Haffajee A. 2013. Lessons learned and unlearned in periodontal microbiology. Periodontal 2000 62: 95-162), mixed with P. gingivalis cells (10^8) in PBS and incubated at room temperature for 1 h. After washing three times with PBS, bacteria-protein complexes were blocked in PBS with 5% BSA for 1 h. ArcA bound to P. gingivalis was detected by staining with rabbit anti-ArcA polyclonal antibody (1:400) and tetramethyl rhodamine isothiocyanate (TRITC, 1:500)-conjugated AffiniPure Goat Anti-Rabbit IgG antibody. Visualization was with a LSM 510 inverted confocal microscope with selected filters (543 nm excitation and 560 nm emission).

[10] = test system: P. gingivalis RagB (PGN_0294) and MotA/ToIQ/ExbB proton channel family protein (PGN_0806); assay: Pull-down assay of ArcA-interacting surface proteins; type: binding, Porphyromonas gingivalis; conditions: MS identification
Experimental: Pull-down assays. To isolate and identify P. gingivalis surface molecule(s) that interacts with ArcA, we performed a pull-down assay. Surface extracts of P. gingivalis were prepared by sonication with a Sonic Dismembrator (Fisher Scientific; output control 8, 20 s×3), and the cell debris were removed by centrifugation followed by filtration (0.2-μm pore size). Surface extracts of 33277 were mixed with purified ArcA on a rotator at room temperature for 1 h, and then added to an ArcA antibody coupled Sepharose 4B column (Sigma-Aldrich). After incubation at room temperature for 1 h, the column was washed three times with PBS containing 0.01% Tween, and proteins were eluted by 0.1 M Glycine pH 2.4. After SDS-PAGE, bands were excised and identified by liquid chromatography-mass spectrometry.

[11] = test system: P. gingivalis; assay: Effect of ArcA domains on fimA expression; type: cell-based, Porphyromonas gingivalis; conditions: domain of ArcA as a whole
[12] = Arginine deiminase activity of ArcA domain; type: biochemical

Row | Molecule | inhibitory activity on virulence gene expression [1] | Relative expression level fmA [1] | Relative expression level kgp [1] | Relative expression level mfa1 [1] | Relative expression level pgn0128 [1] | Relative expression level rgpA [1] | Relative expression level rgpA/B [1] | binding to P. gingivalis surface proteins [2] | further results
1 | ELVRGRGGPRCMSMPF (listed as Streptococcus cristatus) [P5, ArcA-derived peptide from residue 389, C-terminal domain] | some inhibitory activity | 0.97 | 0.96 | 0.83 | 0.91 | 0.73 | 0.72 | demonstrated to bind | 
2 | NIFKKNVGFKK [P4, NIFKKNVGFKK] |  |  |  |  |  |  |  |  | cell membrane damage of HOKs (LDH) [3]: did not induce; apoptosis of HOKs (annexin V/PI) [4]: did not induce; stability at 37° C. ([5]; 37° C. for 24 h, initial study): stable; stability in H2O and PBS ([5]; 24 h incubation, 37° C.): not affected; time P4 can maintain in saliva at certain level ([6]; 37° C.): at least 24 h; signal in diluted whole saliva ([6]; PBS:saliva 1:1, 0, 0.5, 1, 2, 4 and 24 h): gradual reduction; Signal Intensity of 331.45 m/z peak ([6]; Saliva (PBS:saliva 1:1), 0 hour): 3.9 × 10^6 ± 3.1 × 10^5; Signal Intensity of 331.45 m/z peak ([6]; Saliva, 0.5 hour, 37° C.): 3.6 × 10^6 ± 4.0 × 10^5; Signal Intensity of 331.45 m/z peak ([6]; Saliva, 1 hour, 37° C.): 2.4 × 10^6 ± 2.2 × 10^5; Signal Intensity of 331.45 m/z peak ([6]; Saliva, 2 hour, 37° C.): 1.7 × 10^6 ± 4.2 × 10^5; Signal Intensity of 331.45 m/z peak ([6]; Saliva, 4 hour, 37° C.): 8.8 × 10^5 ± 2.7 × 10^4; Signal Intensity of 331.45 m/z peak ([6]; Saliva, 24 hour, 37° C.): 4.2 × 10^5 ± 3.9 × 10^4; solubility [7]: can be dissolved; Signal Intensity of 331.45 m/z peak ([8]; Saliva, 48 hour, 37° C.): 6.0 × 10^3 ± 4.1 × 10^2; signal in diluted whole saliva ([8]; after 48 h): completely diP4eared
3 | arginine deiminase [ArcA] |  |  |  |  |  |  |  |  | affinity of ArcA for bacterial cells [9]: high affinity; interaction with P. gingivalis surface proteins PGN_0294 and PGN_0806 [10]: found to interact
4 | NHMFADTRNRE (listed as Streptococcus cristatus) [P2, ArcA-derived peptide from residue 177, N-terminal domain] | some inhibitory activity | 0.80 | 0.90 | 0.80 | 0.88 | 0.81 | 0.78 | demonstrated to bind | 
5 | IRGRETKK (listed as Streptococcus cristatus) [P1, ArcA-derived peptide from residue 97, N-terminal domain] | some inhibitory activity | 0.88 | 1.06 | 0.85 | 0.96 | 0.86 | 0.89 | demonstrated to bind | 
6 | VYNREEDTRIEGGDEL (listed as Streptococcus cristatus) [P3, ArcA-derived peptide from residue 208, C-terminal domain] | some inhibitory activity | 0.87 | 0.99 | 0.82 | 0.91 | 0.84 | 0.98 | demonstrated to bind | 
7 | B1 |  |  |  |  |  |  |  |  | effect on fimA expression of P. gingivalis [11]: observed to affect; deiminase activity [12]: does not have any deiminase activity
